Experimental data published in patent US10100088B2, “Glycopeptide derivatives for the preservation and protection of biological materials and microorganisms” (TFCHEM, priority 2014, dated 2018).
“Also recorded” adds a separate entry of the source. Read-outs that look alike come from different tables or passages of the source.

What was measured:
[1] = system: human neonatal skin fibroblasts (CCD-27SK, ATCC CRL-1475); test: Starvation (serum deprivation) stress, neutral red uptake viability; assay type: cell-based; conditions: for viability at 5000 µg/mL: Homo sapiens, CCD-27Sk, read-out: Percentage of viability; for preservative/protective effect on skin fibroblasts (in words): starvation medium
Protocol: (§1) Induced stresses were performed as follow: Starvation
(§2) The neutral red uptake assay was used for the determination of cell viability. This assay is based on the ability of viable cells to incorporate and bind the supravital dye neutral red in its lysosomes. So, only the viable cells are dyed. At different times after the stress assay (T0), the plates were incubated with neutral red solution for 3.5 hours. The cells are subsequently washed, the dye is extracted in each well and the absorbance is read using a spectrophotometer.
(§3) For sampling, 1 mL of DMEM (without phenol red indicator) with neutral red (OD=0.110) was added to the cells for 3.5 hours (37° C., 10% CO2). After incubation, the medium was removed, two washes of PBS were realized and 1 mL of extraction solution (absolute ethanol 49%, ultrapure water 49%, glacial acetic acid 2%) was added. Plates were placed 15 minutes on rotary shaker in the dark before reading OD at 540 nm.
(§4) The OD540 nm average value of positive control was considered as 100% of viability.
(§5) The percentage of viability for each assay was calculated as follow: % viability assay=(OD540 nm of tested solution−blank)*100/(OD540 nm of positive control−blank).

[2] = system: human nasal epithelial cells (RPMI2650, ATCC CCL-30); test: as above; assay type: cell-based; conditions: for viability at 10000 µg/mL: Homo sapiens, 10 mg/mL, read-out: Percentage of viability
Protocol: as §1, §2, §3, §4, §5

[3] = system: human neonatal skin fibroblasts; test: Oxidative stress (H2O2), neutral red uptake viability; assay type: cell-based; conditions: for viability at 5000 µg/mL / viability at 10000 µg/mL / viability at 15000 µg/mL: Homo sapiens, Skin fibroblast, read-out: Percentage of viability following oxidative stress; for viability at 5000 µg/mL: 5 mg/mL; for viability at 10000 µg/mL: 10 mg/mL; for viability at 15000 µg/mL: 15 mg/mL
Protocol: as §1
Then oxidative stress was performed as follow: 0.2 ml of solution at 500 μM of H2O2 was added in wells except for negative control where 0.2 ml of culture medium were added.
as §2, §3, §5

[4] = system: human neonatal skin fibroblasts; test: UV stress (11 J/cm^2), neutral red uptake viability; assay type: cell-based; conditions: for viability at 5000 µg/mL / viability at 10000 µg/mL / viability at 15000 µg/mL: Homo sapiens, Skin fibroblast, light or radiation study, read-out: Percentage of viability following UV stress (11 J/cm^2); for viability at 5000 µg/mL: 5 mg/mL; for viability at 10000 µg/mL: 10 mg/mL; for viability at 15000 µg/mL: 15 mg/mL
Protocol: as §2, §3, §5

[5] = Comparative stability towards basic conditions (NaOD in D2O), 1H NMR; assay type: physicochemical
Protocol: In a first set of experiments (experiments 1 to 7 in table 9), X (10 mg, 1.72 10^−2 mmol) was reacted with 2 to 8 equivalents of NaOD in a total volume of 355 μL of deuterium oxide ([X]=4.8 10^−2 mmol·mL^−1) during 2 h 30 before being acidified with 1M DCl in D2O. To be sure that all compounds in solution are in their acidic form, the equivalents of DCl are adjusted to 3 more equivalents of DCl than the amount required to neutralize the solution (nDCl=nNaOD+3). The volume was adjusted to 544 μL with deuterium oxide.
In a second set of experiments (experiments 8 to 14 in table 9), 17 (10 mg, 1.66 10^−2 mmol) was reacted with 2 to 8 equivalents of NaOD in a total volume of 343 μL of deuterium oxide ([17]=4.8 10^−2 mmol·mL^−1) during 2 h 30 before being acidified with 1M DCl in D2O. To be sure that all compounds in solution are in their acidic form, the equivalents of DCl are adjusted to 3 more equivalents of DCl than the amount required to neutralize the solution (nDCl=nNaOD+3). The volume was adjusted to 526 μL with deuterium oxide.
^1H NMR analyses were performed on each experiment. It is why experiments were realized in deuterium oxide and using 1M NaOD in D2O as base and 1M DCl in D2O as acid.
^1H NMR allows indeed the determination of the amount of compound X1 formed, by comparison between the integration corresponding to the methylene group of the lysine side chain connected to the nitrogen atom in X (CH2NGP) (3.3 ppm) and the integrationof the same methylene group in X1 (CH2Lys hydrolyzed) (3.0 ppm).
To confirm the structure of compounds X1 and X2, resulting from hydrolysis of X, the following experiment was realized, in which X (10 mg, 1.72 10^−2 mmol) was reacted with 8 equivalents of NaOD in a total volume of 355 μL of deuterium oxide ([X]=4.8 10^−2 mmol·mL^−1) during 3 days before being acidified with 1M DCl in D2O. In these conditions, almost the totality of compound X is hydrolyzed, the percentage of hydrolysis of compound X being 85% as determined by ^1H NMR as evidence in table 11.

[6] = D 1 after serum deprivation, 5 mg/mL (Table 2)
[7] = D 7 after serum deprivation, 5 mg/mL (Table 2)
[8] = D 4 after serum deprivation, 5 mg/mL (Table 2)
[9] = D4 after serum deprivation, 10 mg/mL, positive control with 5% FBS (Table 3)
[10] = D8 after serum deprivation, 10 mg/mL, positive control with 5% FBS (Table 3)

Q: Which results are given for `C[C@H](NC(=O)[C@H](C)NC(=O)[C@@H](N)CCCCNCC(F)(F)C1(O)O[C@H](CO)[C@H](O)[C@H](O)[C@H]1O)C(=O)O` (stereo partly shown) [Compound 19]?
A: Percentage of viability [1, 6]: 73%; Percentage of viability [1, 7]: 50%; viability at 5000 µg/mL [1, 6]: 73 to 87%; viability at 5000 µg/mL [1, 8]: 57%; viability at 5000 µg/mL [1, 7]: 45 to 50%; preservative/protective effect on skin fibroblasts (in words) [1]: significant preservative/protective effect; viability at 10000 µg/mL ([2]; RPMI-2650, D4 after serum deprivation): 52 ± 4.64%; viability at 10000 µg/mL ([2]; RPMI-2650, D6 after serum deprivation): 26%; preservative/protective effect on human nasal epithelial cells (in words) ([2]; starvation medium, 10 mg/ml): preservative/protective effect; preservative/protective effect against oxidative stress (in words) ([3]; 5 to 15 mg/ml): preservative/protective effect against oxidative stress which is dose dependant; viability at 5000 µg/mL ([3]; 1 h after 100 μM H2O2): 89 ± 2.7%; viability at 10000 µg/mL ([3]; 1 h after 100 μM H2O2): 99 ± 0.5%; viability at 15000 µg/mL ([3]; 1 h after 100 μM H2O2): 110 ± 2%; viability at 5000 µg/mL ([3]; 24 h after 100 μM H2O2): 109 ± 2.2%; viability at 10000 µg/mL ([3]; 24 h after 100 μM H2O2): 120 ± 2.1%; viability at 15000 µg/mL ([3]; 24 h after 100 μM H2O2): 127 ± 5.8%; growth/regenerative effect on stressed cells (in words) ([3]; viability increased in time after H2O2): growth/regenerative effect; preservative/protective effect against UV stress (in words) [4]: preservative/protective effect against UV stress; viability at 5000 µg/mL ([4]; 1 h after irradiation): 53%; viability at 10000 µg/mL ([4]; 1 h after irradiation): 70%; viability at 15000 µg/mL ([4]; 1 h after irradiation): 67%; viability at 5000 µg/mL ([4]; 3 h after irradiation): 71%; viability at 10000 µg/mL ([4]; 3 h after irradiation): 80%; viability at 15000 µg/mL ([4]; 3 h after irradiation): 80%; viability at 5000 µg/mL ([4]; 24 h after irradiation): 89%; viability at 10000 µg/mL ([4]; 24 h after irradiation): 116%; viability at 15000 µg/mL ([4]; 24 h after irradiation): 112%; growth or regenerative effect on stressed cells (in words) ([4]; viability increased in time after UV): growth or regenerative effect

Q: Which Percentage of viability [1, 6] does the source give for `CC(=O)O.CC(=O)O.C[C@H](NC(=O)[C@H](C)NC(=O)[C@@H](N)CCCCNCC(F)(F)C1(O)O[C@H](CO)[C@H](O)[C@H](O)[C@H]1O)C(=O)O` (stereo partly shown) [Compound 20] here?
A: 87%

Q: What about the Percentage of viability [1, 8] of the same compound?
A: 63%

Q: And the Percentage of viability [1, 7]?
A: 50%

Q: What about the “preservative/protective effect on skin fibroblasts (in words)” value [1] of the same compound?
A: significant preservative/protective effect

Q: Which results are given for `C[C@H](NC(=O)[C@@H](N)CCCCNCC(F)(F)C1(O)O[C@H](CO)[C@H](O)[C@H](O)[C@H]1O)C(=O)O.Cl.Cl` (stereo partly shown) [Compound 22]?
A: Percentage of viability ([1]; D4 after serum deprivation, 10 mg/mL (Table 4)): 93%; preservative/protective effect on skin fibroblasts (in words) [1]: significant preservative/protective effect

Q: For `Cl.Cl.N[C@@H](CCCCNCC(F)(F)C1(O)O[C@H](CO)[C@H](O)[C@H](O)[C@H]1O)C(=O)NCC(=O)NCC(=O)O` (stereo partly shown) [Compound 24], which Percentage of viability [1, 9] is on record?
A: 99 ± 3.35%

Q: What about the Percentage of viability [1, 10] of the same compound?
A: 95 ± 1.60%

Q: And the “preservative/protective effect on skin fibroblasts (in words)” value [1]?
A: significant preservative/protective effect

Q: For `C[C@H](NC(=O)[C@@H](N)CCCCNCC(F)(F)C1(O)O[C@H](CO)[C@H](O)[C@H](O)[C@H]1O)C(=O)NCC(=O)O.Cl.Cl` (stereo partly shown) [Compound 26], which Percentage of viability [1, 9] is on record?
A: 89 ± 1.21%

Q: What about the Percentage of viability [1, 10] of the same compound?
A: 64 ± 2.78%

Q: What about the “preservative/protective effect on skin fibroblasts (in words)” value [1] of the same compound?
A: significant preservative/protective effect

Q: What does the source list for `C[C@H](NC(=O)CNC(=O)[C@@H](N)CCCCNCC(F)(F)C1(O)O[C@H](CO)[C@H](O)[C@H](O)[C@H]1O)C(=O)O.Cl.Cl` (stereo partly shown) [Compound 28]?
A: Percentage of viability [1, 9]: 109 ± 2.05%; Percentage of viability [1, 10]: 108 ± 3.40%; preservative/protective effect on skin fibroblasts (in words) [1]: significant preservative/protective effect

Q: Which results are given for `C[C@H](NC(=O)[C@H](C)NC(=O)[C@@H](N)CCCNCC(F)(F)C1(O)O[C@H](CO)[C@H](O)[C@H](O)[C@H]1O)C(=O)O.Cl.Cl` (stereo partly shown) [Compound 30]?
A: Percentage of viability [1, 9]: 92 ± 1.2%; Percentage of viability [1, 10]: 74 ± 0.5%; preservative/protective effect on skin fibroblasts (in words) [1]: significant preservative/protective effect

Q: Which Percentage of viability [1, 9] does the source give for `C[C@H](NC(=O)[C@@H](N)CCCCNCC(F)(F)C1(O)O[C@H](CO)[C@H](O)[C@H](O)[C@H]1O)C(=O)N1CCC[C@H]1C(=O)O.Cl.Cl` (stereo partly shown) [Compound 34] here?
A: 103 ± 1%

Q: And the Percentage of viability [1, 10]?
A: 103 ± 2%

Q: And the “preservative/protective effect on skin fibroblasts (in words)” value [1]?
A: significant preservative/protective effect

Q: Which Percentage of viability [1, 9] does the source give for `C[C@H](N)C(=O)N[C@@H](CCCCNCC(F)(F)C1(O)O[C@H](CO)[C@H](O)[C@H](O)[C@H]1O)C(=O)N[C@@H](C)C(=O)O.Cl.Cl` (stereo partly shown) [Compound 38] here?
A: 101 ± 3%

Q: And the Percentage of viability [1, 10]?
A: 88 ± 3%

Q: What about the “preservative/protective effect on skin fibroblasts (in words)” value [1] of the same compound?
A: significant preservative/protective effect

Q: With `Cl.Cl.N[C@@H](CCCCNCC(F)(F)C1(O)O[C@H](CO)[C@H](O)[C@H](O)[C@H]1O)C(=O)O` (stereo partly shown) [Compound 44] as the compound, how does the Percentage of viability [1, 9] read?
A: 111 ± 2.9%

Q: And the Percentage of viability [1, 10]?
A: 102 ± 1.3%

Q: What about the “preservative/protective effect on skin fibroblasts (in words)” value [1] of the same compound?
A: significant preservative/protective effect

Q: With `C[C@H](NC(=O)[C@H](C)NC(=O)[C@@H](N)CCCCNC(=O)C(F)(F)[C@]1(O)O[C@H](CO)[C@H](O)[C@H](O)[C@H]1O)C(=O)O` [Compound X] as the compound, how does the “% hydrolyzed” value ([5]; 2 eq NaOD, 2 h 30, D2O) read?
A: 2.0%

Q: And the “stability towards basic conditions (in words)” value ([5]; 2 to 8 eq NaOD, 2 h 30, 1H NMR)?
A: degradation; also recorded: sensitive to basic medium

Q: What about the “% hydrolyzed” value ([5]; 3 eq NaOD, 2 h 30, D2O) of the same compound?
A: 4.8%

Q: What about the “% hydrolyzed” value ([5]; 4 eq NaOD, 2 h 30, D2O) of the same compound?
A: 13.0%

Q: And the “% hydrolyzed” value ([5]; 5 eq NaOD, 2 h 30, D2O)?
A: 16.0%

Q: What about the “% hydrolyzed” value ([5]; 6 eq NaOD, 2 h 30, D2O) of the same compound?
A: 19.0%

Q: And the “% hydrolyzed” value ([5]; 7 eq NaOD, 2 h 30, D2O)?
A: 20.6%

Q: And the “% hydrolyzed” value ([5]; 8 eq NaOD, 2 h 30, D2O)?
A: 22.2%

Q: And the “% hydrolyzed” value ([5]; 8 eq NaOD, 2 h 30, D2O, listed as compound X)?
A: 22%

Q: And the “% hydrolyzed” value ([5]; Control, 0 eq NaOD)?
A: 0.5%

Q: And the “% hydrolysis” value ([5]; Experiment A, 0 eq NaOD (Table 11))?
A: 0.5%

Q: And the “% hydrolysis” value ([5]; Experiment B, 8 eq NaOD, 3 days, D2O)?
A: 85%
